Where a name gives a salt, the structure may show the parent alone.
Target: α7 nAChR (Rattus norvegicus, UniProt Q05941)
Assay: [3H]-MLA competition binding assay, rat brain membranes
Conditions: Ki, inhibition of [3H]-MLA binding (3.0 to 4.0 nM), Sprague-Dawley rat whole brain minus cerebellum homogenate, 1 hour at 25° C
Protocol: Membrane Preparation. Male Sprague-Dawley rats (300-350 g) are sacrificed by decapitation and the brains (whole brain minus cerebellum) are dissected quickly, weighed and homogenized in 9 volumes/g wet weight of ice-cold 0.32 M sucrose using a rotating pestle on setting 50 (10 up and down strokes). The homogenate is centrifuged at 1,000×g for 10 minutes at 4° C. The supernatant is collected and centrifuged at 20,000×g for 20 minutes at 4° C. The resulting pellet is resuspended to a protein concentration of 1-8 mg/mL. Aliquots of 5 mL homogenate are frozen at −80° C. until needed for the assay.
Binding Assay. […] Filters are pre-soaked in 50 mm Tris HCl pH 7.0-0.05% polyethylenimine. The filters are rapidly washed two times with 5 mL aliquots of cold 0.9% saline and then counted for radioactivity by liquid
Data Analysis. […] Hill coefficients were obtained using non-linear regression (GraphPad Prism sigmoidal dose-response with variable slope).

α7 nAChR, sequence (Q05941 23-502): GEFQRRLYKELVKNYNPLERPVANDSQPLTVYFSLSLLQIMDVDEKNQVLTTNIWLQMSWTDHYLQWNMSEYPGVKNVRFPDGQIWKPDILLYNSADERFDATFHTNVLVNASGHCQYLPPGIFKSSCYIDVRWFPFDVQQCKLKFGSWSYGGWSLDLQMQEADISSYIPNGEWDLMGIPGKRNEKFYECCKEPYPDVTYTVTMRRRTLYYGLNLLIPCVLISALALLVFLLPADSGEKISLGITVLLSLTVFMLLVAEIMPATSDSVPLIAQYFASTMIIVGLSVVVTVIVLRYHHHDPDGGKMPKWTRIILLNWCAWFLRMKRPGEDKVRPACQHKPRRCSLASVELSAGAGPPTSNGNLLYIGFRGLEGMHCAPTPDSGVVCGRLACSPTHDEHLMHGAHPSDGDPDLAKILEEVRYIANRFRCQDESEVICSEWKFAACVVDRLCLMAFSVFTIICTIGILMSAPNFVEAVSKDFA

SMILES	Ki [nM]
Cc1cc(C(=O)N[C@H]2CN3CCC2CC3)oc1C [Example 128, N-[(3R)-1-azabicyclo[2.2.2]oct-3-yl]-4,5-dimethyl-furan-2-carboxamide hydrochloride]	6 to 7
O=C(N[C@H]1CN2CCC1CC2)c1ccc(-c2ccc(Cl)s2)s1 [Example 15, N-[(3R)-1-Azabicyclo[2.2.2]oct-3-yl]-5′-chloro-2,2′-bithiophene-5-carboxamide Hydrochloride]	40 to 90
COc1cccc(-c2ccc(C(=O)N[C@H]3CN4CCC3CC4)o2)c1 [Example 119, N-[(3R)-1-azabicyclo[2.2.2]oct-3-yl]-5-(3-methoxyphenyl)-furan-2-carboxamide 4-methylbenzenesulfonate]	415 to 560
Cc1cccc(-c2ccc(C(=O)N[C@H]3CN4CCC3CC4)o2)c1 [Example 136, N-[(3R)-1-azabicyclo[2.2.2]oct-3-yl]-5-(3-methylphenyl)-furan-2-carboxamide 4-methylbenzenesulfonate]	15 to 20
COc1ccc(C(=O)N[C@H]2CN3CCC2CC3)s1 [Example 19, N-[(3R)-1-Azabicyclo[2.2.2]oct-3-yl]-5-methoxy-thiophene-2-carboxamide Hydrochloride]	24
O=C(N[C@H]1CN2CCC1CC2)c1ccc([N+](=O)[O-])s1 [Example 16, N-[(3R)-1-Azabicyclo[2.2.2]oct-3-yl]-5-nitro-thiophene-2-carboxamide Hydrochloride]	3 to 8
O=C(N[C@H]1CN2CCC1CC2)c1ccc(-c2ccccc2O)s1 [Example 41, N-[(3R)-1-Azabicyclo[2.2.2]oct-3-yl]-5-(2-hydroxyphenyl)-thiophene-2-carboxamide Hydrochloride]	34
O=C(N[C@H]1CN2CCC1CC2)c1cnc(-c2ccccc2)s1 [Example 50, N-[(3R)-1-Azabicyclo[2.2.2]oct-3-yl]-2-phenyl-1,3-thiazole-5-carboxamide Fumarate]	68 to 564
COc1ccc(-c2ccc(C(=O)N[C@H]3CN4CCC3CC4)o2)cc1 [Example 134, N-[(3R)-1-azabicyclo[2.2.2]oct-3-yl]-5-(4-methoxy-phenyl)-furan-2-carboxamide hydrochloride]	60 to 100
O=C(N[C@H]1CN2CCC1CC2)c1ccc(-c2ccccn2)s1 [Example 20, N-[(3R)-1-Azabicyclo[2.2.2]oct-3-yl]-5-(pyridin-2-yl)-thiophene-2-carboxamide]	3 to 5
COc1ccccc1-c1cnc(C(=O)N[C@H]2CN3CCC2CC3)o1 [Example 84, N-[(3R)-1-azabicyclo[2.2.2]oct-3-yl]-5-(2-methoxyphenyl)-1,3-oxazole-2-carboxamide 4-methylbenzenesulfonate]	1100 to 1490
O=C(N[C@H]1CN2CCC1CC2)c1ccc(-c2cccc(Cl)c2)o1 [Example 105, N-[(3R)-1-azabicyclo[2.2.2]oct-3-yl]-5-(3-chlorophenyl)-furan-2-carboxamide toluene sulfonate]	90
O=C(N[C@H]1CN2CCC1CC2)c1ncc(-c2ccccc2Cl)s1 [Example 94, N-[(3R)-1-azabicyclo[2.2.2]oct-3-yl]-5-(2-chlorophenyl)-1,3-thiazole-2-carboxamide 4-methylbenzenesulfonate]	125
O=C(N[C@H]1CN2CCC1CC2)c1ncc(-c2cccc([N+](=O)[O-])c2)o1 [Example 81, N-[(3R)-1-azabicyclo[2.2.2]oct-3-yl]-5-(3-nitrophenyl)-1,3-oxazole carboxamide 4-methylbenzenesulfonate]	55 to 175
O=C(N[C@H]1CN2CCC1CC2)c1ccc(Sc2ccccc2)s1 [Example 27, N-[(3R)-1-azabicyclo[2.2.2]oct-3-yl]-5-(phenylsulfanyl)-thiophene-2-carboxamide]	35 to 160
O=C(N[C@H]1CN2CCC1CC2)c1ccc(-c2ccccc2)o1 [Example 103, N-[(3R)-1-Azabicyclo[2.2.2]oct-3-yl]-5-phenyl-furan-2-carboxamide 4-Methylbenzenesulfonate]	17 to 50
O=C(N[C@H]1CN2CCC1CC2)c1ccc(-c2ccccc2[N+](=O)[O-])o1 [Example 110, N-[(3R)-1-azabicyclo[2.2.2]oct-3-yl]-5-(2-nitrophenyl)-furan-2-carboxamide 4-methylbenzenesulfonate]	4 to 190
Cc1cnc(C(=O)N[C@H]2CN3CCC2CC3)s1 [Example 98, N-[(3R)-1-azabicyclo[2.2.2]oct-3-yl]-5-methyl-1,3-thiazole-2-carboxamide 4-methylbenzenesulfonate]	50 to 80
N#Cc1cccc(-c2cnc(C(=O)N[C@H]3CN4CCC3CC4)o2)c1 [Example 87, N-[(3R)-1-azabicyclo[2.2.2]oct-3-yl]-5-(3-cyanophenyl)-1,3-oxazole-2-carboxamide 4-methylbenzenesulfonate]	130 to 150
O=C(N[C@H]1CN2CCC1CC2)c1ccc(-c2cc(F)cc(F)c2)o1 [Example 133, N-[(3R)-1-azabicyclo[2.2.2]oct-3-yl]-5-(3,5-difluorophenyl)-furan-2-carboxamide hydrochloride]	30 to 70
O=C(N[C@H]1CN2CCC1CC2)c1cnc(-c2ccccc2F)s1 [Example 52, N-[(3R)-1-Azabicyclo[2.2.2]oct-3-yl]-2-(2-fluorophenyl)-1,3-thiazole-5-carboxamide Citrate]	340 to 480

SMILES	Ki [nM]
COc1cccc(-c2cnc(C(=O)N[C@H]3CN4CCC3CC4)o2)c1 [Example 80, N-[(3R)-1-azabicyclo[2.2.2]oct-3-yl]-5-(3-methoxyphenyl)-1,3-oxazole-2-carboxamide 4-methylbenzenesulfonate]	50 to 60
O=C(N[C@H]1CN2CCC1CC2)c1ncc(-c2ccccc2)s1 [Example 90, N-[(3R)-1-azabicyclo[2.2.2]oct-3-yl]-5-phenyl-1,3-thiazole-2-carboxamide]	80 to 150
O=C(N[C@H]1CN2CCC1CC2)c1ccc(-c2ccc(Cl)cc2)s1 [Example 2, N-[(3R)-1-azabicyclo[2.2.2]oct-3-yl]-5-(4-clorophenyl)-thiophene-2-carboxamide hydrochloride]	110
Cn1c(C(=O)N[C@H]2CN3CCC2CC3)ccc1-c1ccccc1 [Example 152, N-[(3R)-1-Azabicyclo[2.2.2]oct-3-yl]-1-methyl-5-phenyl-1H-pyrrole-2-carboxamide]	20 to 65
O=C(N[C@H]1CN2CCC1CC2)c1ccc(Br)s1 [Example 26, N-[(3R)-1-azabicyclo[2.2.2]oct-3-yl]-5-bromo-thiophene-2-carboxamide]	5 to 20
Cc1ccc(C(=O)N[C@H]2CN3CCC2CC3)s1 [Example 25, N-[(3R)-1-azabicyclo[2.2.2]oct-3-yl]-5-methyl-thiophene-2-carboxamide]	10 to 15
CC1C(NC(=O)c2ccc(Br)s2)C2CCN1CC2 (mixture of isomers) [Example 158, 5-Bromo-N-(2-methyl-1-azabicyclo[2.2.2]oct-3-yl)thiophene-2-carboxamide 4-Methylbenzenesulfonate]	12 to 20
O=C(N[C@H]1CN2CCC1CC2)c1ncc(-c2ccccc2)o1 [Example 153, N-[(3R)-1-azabicyclo[2.2.2]oct-3-yl]-5-phenyl-1,3-oxazole-2-carboxamide 4-methylbenzenesulfonate]	1550
COc1ccc(-c2cnc(C(=O)N[C@H]3CN4CCC3CC4)o2)cc1 [Example 82, N-[(3R)-1-azabicyclo[2.2.2]oct-3-yl]-5-(4-methoxyphenyl)-1,3-oxazole-2-carboxamide 4-methylbenzenesulfonate]	115 to 125
O=C(N[C@H]1CN2CCC1CC2)c1ccc(-c2cccs2)s1 [Example 21]	1 to 2
O=C(N[C@H]1CN2CCC1CC2)c1ccc(Oc2ccccc2)s1 [Example 40, N-[(3R)-1-Azabicyclo[2.2.2]oct-3-yl]-5-phenoxy-thiophene-2-carboxamide Hydrochloride]	12 to 16
NCc1ccc(C(=O)N[C@H]2CN3CCC2CC3)s1 [Example 17, 5-(Aminomethyl)-N-[(3R)-1-azabicyclo[2.2.2]oct-3-yl]-thiophene-2-carboxamide Dihydrochloride]	260 to 385
O=C(N[C@H]1CN2CCC1CC2)c1cc(-c2ccccc2)cs1 [Example 8, N-[(3R)-1-azabicyclo[2.2.2]oct-3-yl]4-phenyl-thiophene-2-carboxamide hydrochloride]	46
CC(C)(C)c1ccc(-c2ccc(C(=O)N[C@H]3CN4CCC3CC4)o2)cc1 [Example 140, N-[(3R)-1-azabicyclo[2.2.2]oct-3-yl]-5-(4-tert-butylphenyl)-furan-2-carboxamide 4-methylbenzenesulfonate]	35 to 65
O=C(N[C@H]1CN2CCC1CC2)c1ncc(-c2ccc(F)cc2)o1 [Example 85, N-[(3R)-1-azabicyclo[2.2.2]oct-3-yl]-5-(4-fluorophenyl)-1,3-oxazole-2-carboxamide 4-methylbenzenesulfonate]	30 to 40
O=C(N[C@H]1CN2CCC1CC2)c1ccc(Cl)s1 [Example 23, N-[(3R)-1-azabicyclo[2.2.2]oct-3-yl]-5-chloro-thiophene-2-carboxamide]	6 to 10
COc1cccc(-c2cnc(C(=O)N[C@H]3CN4CCC3CC4)s2)c1 [Example 93, N-[(3R)-1-azabicyclo[2.2.2]oct-3-yl]-5-(3-methoxyphenyl)-1,3-thiazole-2-carboxamide 4-methylbenzenesulfonate]	40 to 45
O=C(N[C@H]1CN2CCC1CC2)c1ccc(-c2cccc(Cl)c2)s1 [Example 3, N-[(3R)-1-azabicyclo[2.2.2]oct-3-yl]-5-(3-chlorophenyl)-thiophene-2-carboxamide hydrochloride]	95 to 157
O=C(N[C@H]1CN2CCC1CC2)c1ccc(Sc2ccc(F)cc2F)s1 [Example 34, N-[(3R)-1-azabicyclo[2.2.2]oct-3-yl]-5-(2,4-difluorophenyl-sulfanyl)-thiophene-2-carboxamide hydrochloride]	30 to 39
O=C(N[C@H]1CN2CCC1CC2)c1cnc(-c2ccccc2O)s1 [Example 55, N-[(3R)-1-azabicyclo[2.2.2]oct-3-yl]-2-(2-hydroxyphenyl)-1,3-thiazole-5-carboxamide hydrochloride]	60 to 70

Reference: patent publication US6500840B2, “Quinuclidine-substituted heteroaryl moieties for treatment of disease” (Pharmacia & Upjohn Company, priority 2000, dated 2002)
